Measured values published in ChEMBL document CHEMBL4033749, “Synthesis and biological evaluation of 5-fatty-acylamido-1, 3, 4-thiadiazole-2-thioglycosides” (Bioorg Med Chem Lett, 2017).
The source made the active and inactive calls. No cut-off for these calls is given here.

Experiments:
SK-OV-3 = test: Cytotoxicity against human SKOV3 cells incubated for 24 hrs by MTT asasy; assay type: functional, cell-based; details: sk-ov-3
Pseudomonas aeruginosa = test: Antibacterial activity Pseudomonas aeruginosa MTCC 1688 by agar well method; assay type: functional
MDA-MB-231 = test: Cytotoxicity against human MDA-MB-231 cells incubated for 24 hrs by MTT asasy; assay type: functional, cell-based; details: Homo sapiens, MDA-MB-231, 24 h; read-out: IC50
Staphylococcus aureus = test: Antibacterial activity Staphylococcus aureus MTCC 96 by agar well method; assay type: functional
Klebsiella pneumoniae = test: Antibacterial activity Klebsiella pneumoniae MTCC 618 by agar well method; assay type: functional
Bacillus subtilis = test: Antibacterial activity Bacillus subtilis MTCC 441 by agar well method; assay type: functional
[1] = tested on: Staphylococcus epidermidis; test: Antibacterial activity Staphylococcus epidermidis MTCC 9041 by agar well method; assay type: functional
DU-145 = test: Cytotoxicity against human DU145 cells incubated for 24 hrs by MTT asasy; assay type: functional, cell-based; details: Homo sapiens, DU-145, 24 h; read-out: IC50
Escherichia coli = test: Antibacterial activity Escherichia coli MTCC 443 by agar well method; assay type: functional
HeLa = test: Cytotoxicity against human HeLa cells incubated for 24 hrs by MTT asasy; assay type: functional, cell-based; details: Homo sapiens, HeLa, 24 h; read-out: IC50
CHO-K1 = test: Cytotoxicity against CHOK1 cells incubated for 24 hrs by MTT asasy; assay type: cell-based, Cricetulus griseus; details: Cricetulus griseus, CHO-K1, 24 h; read-out: IC50

MIC (Pseudomonas aeruginosa): inactive
MIC (Staphylococcus aureus): inactive
MIC (Klebsiella pneumoniae): inactive
MIC (Bacillus subtilis): inactive
MIC [1]: inactive
MIC (Escherichia coli): inactive
SMILES: CCCCCCCCCCCC(=O)Nc1nnc(S[C@@H]2O[C@H](COC(C)=O)[C@H](OC(C)=O)[C@H](OC(C)=O)[C@H]2OC(C)=O)s1
IC50 (SK-OV-3): Not Active
IC50 (MDA-MB-231): 26.7 µM
IC50 (DU-145): 16.9 µM
IC50 (HeLa): 51.9 µM
IC50 (CHO-K1): 27.7 µM
